Reference: PubChem BioAssay AID292 (DTP/NCI, 2004)
Several values for one entry are separate records, joined by “and”; a condition that tells them apart may be missing. Identical values can stand only once. Inconclusive results and toxic doses are left out.

System: B6C3F1 mice, ip Sarcoma M5076, median survival T/C
Experiment: NCI In Vivo Anticancer Drug Screen. Data for tumor model Sarcoma M5076 (intraperitoneal) in B6C3F1 mice
Settings: endpoint: median survival time, higher = longer survival
In short: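 Antitumour effect is judged in tumour-bearing mice by comparing survival after compound dosing against vehicle-only animals, reported as T/C.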

[1] = dose: 25.0 mg/kg/injection, schedule: Q04DX004 (ip), vehicle: saline with Tween-80
[2] = dose: 50.0 mg/kg/injection, schedule: Q04DX004 (ip), vehicle: saline with Tween-80
[3] = dose: 100.0 mg/kg/injection, schedule: Q04DX004 (ip), vehicle: saline with Tween-80
[4] = dose: 200.0 mg/kg/injection, schedule: Q04DX004 (ip), vehicle: saline with Tween-80
[5] = dose: 400.0 mg/kg/injection, schedule: Q04DX004 (ip), vehicle: saline with Tween-80
[6] = dose: 800.0 mg/kg/injection, schedule: Q04DX004 (ip), vehicle: saline with Tween-80

For `COC(=O)c1ccc(N=NN(C)COC(C)=O)cc1`, the T/C (dose: 30.0 mg/kg/injection, schedule: Q04DX004 (ip), vehicle: Klucel (hydroxypropylcellulose) (HPC)) was 123 % of control, the T/C (dose: 60.0 mg/kg/injection, schedule: Q04DX004 (ip), vehicle: Klucel (hydroxypropylcellulose) (HPC)) was 123 % of control and the T/C (dose: 103.7 mg/kg/injection, schedule: Q04DX004 (ip), vehicle: Klucel (hydroxypropylcellulose) (HPC)) was 175 % of control. The T/C (dose: 172.8 mg/kg/injection, schedule: Q04DX004 (ip), vehicle: Klucel (hydroxypropylcellulose) (HPC)) was 188 % of control, the T/C (dose: 288.0 mg/kg/injection, schedule: Q04DX004 (ip), vehicle: Klucel (hydroxypropylcellulose) (HPC)) was 195 % of control and the T/C (dose: 480.0 mg/kg/injection, schedule: Q04DX004 (ip), vehicle: Klucel (hydroxypropylcellulose) (HPC)) was 167 % of control.
With `CN(C)c1ccc2c(SCC(=O)OCC(=O)[C@@]3(O)CC[C@H]4[C@@H]5CCC6=CC(=O)C=C[C@]6(C)[C@H]5C(=O)C[C@@]43C)c3ccc(N(C)C)cc3nc2c1` the T/C (dose: 25.0 mg/kg/injection, schedule: Q04DX004 (ip), vehicle: Klucel (hydroxypropylcellulose) (HPC)) was 101 % of control, the T/C (dose: 50.0 mg/kg/injection, schedule: Q04DX004 (ip), vehicle: Klucel (hydroxypropylcellulose) (HPC)) was 103 % of control and the T/C (dose: 100.0 mg/kg/injection, schedule: Q04DX004 (ip), vehicle: Klucel (hydroxypropylcellulose) (HPC)) was 97 % of control. For the same compound, the T/C (dose: 200.0 mg/kg/injection, schedule: Q04DX004 (ip), vehicle: Klucel (hydroxypropylcellulose) (HPC)) was 90 % of control and the T/C (dose: 400.0 mg/kg/injection, schedule: Q04DX004 (ip), vehicle: Klucel (hydroxypropylcellulose) (HPC)) was 94 % of control.
In the case of `O=NNc1ncccn1`, the T/C (dose: 25.0 mg/kg/injection, schedule: Q04DX004 (ip), vehicle: water) is reported as 101 % of control, the T/C (dose: 50.0 mg/kg/injection, schedule: Q04DX004 (ip), vehicle: water) is reported as 100 % of control and the T/C (dose: 100.0 mg/kg/injection, schedule: Q04DX004 (ip), vehicle: water) is reported as 97 % of control. The T/C (dose: 200.0 mg/kg/injection, schedule: Q04DX004 (ip), vehicle: water) was 100 % of control and the T/C (dose: 400.0 mg/kg/injection, schedule: Q04DX004 (ip), vehicle: water) was 110 % of control.
For `COc1cccc2c1[C@H]1CO[C@H]3C4C[C@H](C(=O)O)C([C@@H](C2)N13)N4C` (stereo not given in full), the T/C (dose: 0.62 mg/kg/injection, schedule: Q04DX004 (ip), vehicle: water) was 98 % of control, the T/C (dose: 1.25 mg/kg/injection, schedule: Q04DX004 (ip), vehicle: water) was 100 % of control and the T/C (dose: 2.5 mg/kg/injection, schedule: Q04DX004 (ip), vehicle: water) was 102 % of control. The T/C (dose: 5.0 mg/kg/injection, schedule: Q04DX004 (ip), vehicle: water) was 109 % of control and the T/C (dose: 10.0 mg/kg/injection, schedule: Q04DX004 (ip), vehicle: water) was 118 % of control.
With `COc1ccc(C[C@H](N)C(=O)NC2C(CO)OC(n3cnc4c(N(C)C)ncnc43)C2O)cc1` (stereo not given in full) the T/C (dose: 50.0 mg/kg/injection, schedule: Q04DX004 (ip), vehicle: saline) was 89 % of control, the T/C (dose: 100.0 mg/kg/injection, schedule: Q04DX004 (ip), vehicle: saline) was 117 % of control and the T/C (dose: 200.0 mg/kg/injection, schedule: Q04DX004 (ip), vehicle: saline) was 102 % of control. For the same compound, the T/C (dose: 400.0 mg/kg/injection, schedule: Q04DX004 (ip), vehicle: saline) was 108 % of control.
In the case of `O=C1C=CC(O)N1` (stereo not given), the T/C (dose: 10.0 mg/kg/injection, schedule: Q01DX009 (ip), vehicle: water) is reported as 95 % of control, the T/C (dose: 20.0 mg/kg/injection, schedule: Q01DX009 (ip), vehicle: water) is reported as 101 % of control and the T/C (dose: 40.0 mg/kg/injection, schedule: Q01DX009 (ip), vehicle: water) is reported as 101 % of control. The T/C (dose: 80.0 mg/kg/injection, schedule: Q01DX009 (ip), vehicle: water) was 101 % of control and the T/C (dose: 160.0 mg/kg/injection, schedule: Q01DX009 (ip), vehicle: water) was 94 % of control.
In the case of `Nc1nc2c(ncn2C2CC3[O][Sn]([c]4ccccc4)([c]4ccccc4)[O]CC3O2)c(=O)[nH]1` (stereo not given), the T/C (dose: 25.0 mg/kg/injection, schedule: Q04DX004 (ip), vehicle: distilled water + Tween-80) is reported as 99 % of control, the T/C (dose: 50.0 mg/kg/injection, schedule: Q04DX004 (ip), vehicle: distilled water + Tween-80) is reported as 90 % of control and the T/C (dose: 100.0 mg/kg/injection, schedule: Q04DX004 (ip), vehicle: distilled water + Tween-80) is reported as 88 % of control. The T/C (dose: 200.0 mg/kg/injection, schedule: Q04DX004 (ip), vehicle: distilled water + Tween-80) was 92 % of control.
With `O=C(CN1CCC(O)(c2ccc(F)cc2)CC1)N1CCN(C/C=C/c2ccccc2)CC1` the T/C (dose: 37.5 mg/kg/injection, schedule: Q04DX004 (ip), vehicle: saline with Tween-80) was 103 % of control, the T/C (dose: 75.0 mg/kg/injection, schedule: Q04DX004 (ip), vehicle: saline with Tween-80) was 100 % of control and the T/C (dose: 150.0 mg/kg/injection, schedule: Q04DX004 (ip), vehicle: saline with Tween-80) was 102 % of control. The T/C (dose: 300.0 mg/kg/injection, schedule: Q04DX004 (ip), vehicle: saline with Tween-80) was 94 % of control and the T/C (dose: 600.0 mg/kg/injection, schedule: Q04DX004 (ip), vehicle: saline with Tween-80) was 95 % of control.
For `O=[N+]([O-])O.[Ga]`, the T/C (dose: 25.0 mg/kg/injection, schedule: Q04DX005 (ip), vehicle: saline) was 111 % of control, the T/C (dose: 50.0 mg/kg/injection, schedule: Q04DX005 (ip), vehicle: saline) was 115 % of control and the T/C (dose: 100.0 mg/kg/injection, schedule: Q04DX005 (ip), vehicle: saline) was 115 % of control.
`CN1[C@H]2C=CC(=O)[C@]1(Cl)[C@H]1C(=O)N(c3ccccc3)C(=O)[C@@H]21` was tested, and the T/C [1] was 102 % of control and 107 % of control, the T/C [2] was 101 % of control and 107 % of control and the T/C [3] was 95 % of control and 100 % of control. For the same compound, the T/C [4] was 94 % of control and the T/C [5] was 101 % of control.
In the case of `COc1ccccc1N=C1SCC(=O)N1Cc1ccco1`, the T/C [2] is reported as 110 % of control, the T/C [3] is reported as 122 % of control and the T/C [4] is reported as 101 % of control. For the same compound, the T/C [5] was 98 % of control and the T/C [6] was 102 % of control.
For `C[C@@]1(CO)[C@H](O)CC[C@@]2(C)[C@H]1CC[C@H]1C[C@@H]3C[C@@]12CC[C@@]3(O)COC(=O)CN`, the T/C (dose: 7.2 mg/kg/injection, schedule: Q03HX027 (ip), vehicle: saline + alcohol) was 116 % of control, the T/C (dose: 10.0 mg/kg/injection, schedule: Q03HX027 (ip), vehicle: saline + alcohol) was 121 % of control and the T/C (dose: 12.0 mg/kg/injection, schedule: Q03HX027 (ip), vehicle: saline + alcohol) was 116 % of control. For the same compound, the T/C (dose: 18.8 mg/kg/injection, schedule: Q04DX004 (ip), vehicle: saline + alcohol) was 109 % of control, the T/C (dose: 20.0 mg/kg/injection, schedule: Q03HX027 (ip), vehicle: saline + alcohol) was 157 % of control and the T/C (dose: 37.5 mg/kg/injection, schedule: Q04DX004 (ip), vehicle: saline + alcohol) was 104 % of control. For the same compound, the T/C (dose: 55.6 mg/kg/injection, schedule: Q03HX027 (ip), vehicle: saline + alcohol) was 156 % of control, the T/C (dose: 75.0 mg/kg/injection, schedule: Q04DX004 (ip), vehicle: saline + alcohol) was 102 % of control and the T/C (dose: 120.0 mg/kg/injection, schedule: Q01DX009 (ip), vehicle: saline + alcohol) was 110 % of control.
With `COC1=C(OC)C(=O)C(C(=O)CCCCC(=O)O)=C(C)C1=O` the T/C [1] was 100 % of control, the T/C [2] was 98 % of control and 105 % of control and the T/C [3] was 92 % of control and 97 % of control. For the same compound, the T/C [4] was 91 % of control, the T/C [5] was 91 % of control and 97 % of control and the T/C [6] was 95 % of control.
`CCOC(=O)c1ccc2c(=O)[nH]nc(CO)c2c1` was tested, and the T/C [1] was 99 % of control, the T/C [2] was 99 % of control and the T/C [3] was 99 % of control. The T/C [4] was 101 % of control and the T/C [5] was 94 % of control.
With `COc1ccc2c(c1)n([O-])c1ccccc1[n+]2=O` the T/C [1] was 115 % of control, the T/C [2] was 117 % of control and the T/C [3] was 121 % of control.
In the case of `O=C1NC2(CCCCC2)C(=O)N1CCN(CCCl)CCCl`, the T/C (dose: 0.75 mg/kg/injection, schedule: Q01DX009 (ip), vehicle: saline with Tween-80) is reported as 111 % of control, the T/C (dose: 1.5 mg/kg/injection, schedule: Q01DX009 (ip), vehicle: saline with Tween-80) is reported as 113 % of control and the T/C (dose: 7.2 mg/kg/injection, schedule: Q01DX009 (ip), vehicle: saline with Tween-80) is reported as 154 % of control. The T/C (dose: 12.0 mg/kg/injection, schedule: Q01DX009 (ip), vehicle: saline with Tween-80) was 166 % of control and 176 % of control and the T/C (dose: 20.0 mg/kg/injection, schedule: Q01DX009 (ip), vehicle: saline with Tween-80) was 244 % of control.
`N#CC1C(=O)NC(=S)NC1c1ccc(C2CC(=O)NC(=S)N2)cc1` (stereo not given) was tested, and the T/C [2] was 93 % of control, the T/C [3] was 106 % of control and the T/C [4] was 94 % of control. The T/C [5] was 90 % of control and the T/C [6] was 92 % of control.
